{"source": "paper PMC8713164", "about": "“Development of a 1,2,4-Triazole-Based Lead Tankyrase Inhibitor: Part II” (Journal of Medicinal Chemistry, 2021)", "key": {"[1]": {"assay": "microsomal stability, human", "type": "in vitro ADME", "settings": "microsomes", "protocol": "Kinetic solubility, microsomal stability, and plasma stability were determined following our internal protocol (Symeres). The Caco-2 and PPB determinations were performed by Cyprotex."}, "PARP15": {"biological_target": "T1, PARP15 (Homo sapiens, UniProt Q460N3)", "T1 construct": "made in house", "T1 sequence (Q460N3 whole entry)": "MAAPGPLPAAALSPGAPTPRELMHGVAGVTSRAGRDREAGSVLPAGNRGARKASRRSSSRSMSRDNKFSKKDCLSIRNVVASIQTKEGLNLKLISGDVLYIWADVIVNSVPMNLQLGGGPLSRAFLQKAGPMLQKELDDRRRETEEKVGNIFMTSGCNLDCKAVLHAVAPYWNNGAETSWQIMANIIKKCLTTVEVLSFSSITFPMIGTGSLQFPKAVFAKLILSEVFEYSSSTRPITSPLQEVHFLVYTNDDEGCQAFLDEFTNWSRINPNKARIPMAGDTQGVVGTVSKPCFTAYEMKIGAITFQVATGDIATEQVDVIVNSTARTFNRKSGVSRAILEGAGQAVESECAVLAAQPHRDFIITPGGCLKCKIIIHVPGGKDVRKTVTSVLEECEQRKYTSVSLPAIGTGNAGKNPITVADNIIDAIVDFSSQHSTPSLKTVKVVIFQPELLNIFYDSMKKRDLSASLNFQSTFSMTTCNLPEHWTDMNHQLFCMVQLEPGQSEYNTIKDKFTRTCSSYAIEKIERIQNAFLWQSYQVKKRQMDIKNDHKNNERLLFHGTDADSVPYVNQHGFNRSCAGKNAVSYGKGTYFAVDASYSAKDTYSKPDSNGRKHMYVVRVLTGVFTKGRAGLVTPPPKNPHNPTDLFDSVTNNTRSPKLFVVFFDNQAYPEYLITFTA", "assay": "PARP15 biochemical assay", "settings": ">>: no inhibition detected; concentration limited by DMSO tolerance", "protocol": "All reactions were performed at ambient temperature.\nThe assay conditions for the other PARP enzymes were used as previously described.[39]"}, "RKO cells": {"tested_on": "RKO cells", "assay": "MTS colorimetric cell growth assay, RKO", "type": "cell-based, human", "protocol": "(§1) After 5 days, the antiproliferative effect of compound treatment was measured at 490 nm. Mean value ± standard deviation (SD) for one representative experiment of more than three repeated assays, each with six replicates, are shown. […] (b) Representative immunoblots of cytoplasmic TNKS1/2, AXIN1, AXIN2, and cytoplasmic and nuclear transcriptionally active β-catenin (non-phospho) and β-catenin. […] For (b) and (c), control = 0.001% DMSO. (c) Real-time RT-qPCR analyses of WNT/β-catenin signaling target genes (AXIN2, DKK1, NKD1, and APCDD1). Boxplots show median, first and third quartiles, and maximum and minimum whiskers for combined data from three independent experiments with three replicates each. Dotted lines depict the control mean value = 1. For (a) and (c), analysis of variance (ANOVA) tests (Holm–Sidak method, versus control) are indicated by *** (p < 0.001) and * (p < 0.05), while ANOVA on ranks tests (Dunn’s method, versus control) are indicated by ^† (p < 0.05).\n(§2) Antiproliferative assays using colon cancer cell lines COLO 320DM and RKO were performed as previously described.[39]"}, "COLO 320DM cells": {"tested_on": "COLO 320DM cells", "assay": "cells", "protocol": "as §1, §2"}, "human PXR": {"biological_target": "T2, human PXR (Homo sapiens, UniProt O75469)", "T2 construct": "Admescope, contract assay", "T2 sequence (O75469 whole entry)": "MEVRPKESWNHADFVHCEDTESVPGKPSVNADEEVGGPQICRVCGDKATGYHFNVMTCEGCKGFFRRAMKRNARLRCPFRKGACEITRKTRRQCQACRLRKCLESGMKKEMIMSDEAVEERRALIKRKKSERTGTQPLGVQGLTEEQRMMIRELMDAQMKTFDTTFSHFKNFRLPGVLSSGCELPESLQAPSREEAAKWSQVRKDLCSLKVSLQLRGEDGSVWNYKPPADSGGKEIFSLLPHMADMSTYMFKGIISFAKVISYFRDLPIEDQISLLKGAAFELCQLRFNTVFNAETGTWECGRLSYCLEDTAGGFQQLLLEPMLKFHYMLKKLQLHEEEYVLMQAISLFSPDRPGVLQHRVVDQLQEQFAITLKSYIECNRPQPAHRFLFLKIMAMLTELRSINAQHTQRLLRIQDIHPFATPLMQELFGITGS", "assay": "PXR assay (CYP induction)", "type": "in vitro ADME", "settings": "highest concentration, 100 μM", "protocol": "(§3) A safety panel (Cerep) of 44 selected targets (n = 2) including hERG Inhibition using 10 μM 24 was performed by Eurofins. Ames and CYP3A4 inhibition assays were performed by Cyprotex, and the PXR assay (CYP induction) was performed at Admescope. The PARP assays are described below."}, "Ames test": {"assay": "Ames test", "protocol": "as §3"}, "[2]": {"assay": "mouse peroral pharmacokinetic analysis", "type": "in vivo", "settings": "mouse PO 5 mg/kg", "protocol": "The pharmacokinetic analyses in mice were performed according to the standard protocols of Medicilon as previously described[21] following approval by local animal experiment authorities (Shanghai, China) and in compliance with FELASA guidelines and recommendations. Three IRC mice were used per treatment group: 5 mg/kg 24 in 5% DMSO, 50% PEG400 (both Sigma-Aldrich), and 45% saline as vehicle."}, "PARP3": {"biological_target": "T3, PARP3 (Homo sapiens, UniProt Q9Y6F1)", "T3 construct": "made in house", "T3 sequence (Q9Y6F1 whole entry)": "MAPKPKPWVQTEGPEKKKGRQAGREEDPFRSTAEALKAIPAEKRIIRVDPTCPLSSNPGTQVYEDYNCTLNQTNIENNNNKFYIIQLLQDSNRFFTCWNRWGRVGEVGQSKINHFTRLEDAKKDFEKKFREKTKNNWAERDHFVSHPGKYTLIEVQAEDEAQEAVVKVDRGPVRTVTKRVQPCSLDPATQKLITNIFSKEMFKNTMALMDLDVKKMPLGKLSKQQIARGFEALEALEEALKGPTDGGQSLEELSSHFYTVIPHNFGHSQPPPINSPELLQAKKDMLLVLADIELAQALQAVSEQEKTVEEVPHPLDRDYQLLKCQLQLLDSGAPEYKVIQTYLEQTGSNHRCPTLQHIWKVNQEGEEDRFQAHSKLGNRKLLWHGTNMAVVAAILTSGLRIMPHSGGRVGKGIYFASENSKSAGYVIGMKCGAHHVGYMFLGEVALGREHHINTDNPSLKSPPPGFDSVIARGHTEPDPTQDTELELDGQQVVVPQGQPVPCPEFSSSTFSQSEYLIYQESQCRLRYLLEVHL", "assay": "PARP3 biochemical assay", "settings": "> under 50% inhibition", "protocol": "The enzymatic assay measures unreacted NAD^+, which is chemically reacted into a fluorescent compound.[53] […] All reactions were performed at ambient temperature.\nThe assay conditions for the other PARP enzymes were used as previously described.[39] Reference compound OD336 behaved in this assay as previously reported.[28]"}, "CYP3A4": {"biological_target": "T4, CYP3A4 (Homo sapiens, UniProt P08684)", "T4 construct": "Cyprotex, contract assay", "T4 sequence (P08684 whole entry)": "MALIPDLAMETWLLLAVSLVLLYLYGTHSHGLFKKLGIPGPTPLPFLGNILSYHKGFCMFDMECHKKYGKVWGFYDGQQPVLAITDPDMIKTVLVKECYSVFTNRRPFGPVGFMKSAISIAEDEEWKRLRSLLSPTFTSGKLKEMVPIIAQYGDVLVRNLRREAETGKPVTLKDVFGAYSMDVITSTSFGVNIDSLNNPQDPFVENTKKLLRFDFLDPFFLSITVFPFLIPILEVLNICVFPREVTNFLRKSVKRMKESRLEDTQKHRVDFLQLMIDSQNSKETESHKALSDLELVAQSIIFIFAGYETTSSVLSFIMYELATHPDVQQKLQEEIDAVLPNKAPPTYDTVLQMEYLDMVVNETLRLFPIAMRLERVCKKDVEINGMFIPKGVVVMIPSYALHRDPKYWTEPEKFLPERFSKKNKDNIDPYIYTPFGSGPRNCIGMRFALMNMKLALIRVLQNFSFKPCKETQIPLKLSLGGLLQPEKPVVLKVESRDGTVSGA", "assay": "CYP3A4 inhibition", "type": "in vitro ADME", "protocol": "as §3"}}, "note": "Where two headings read alike, the source gives them in different places.", "data": [{"smiles": "CCOc1ccc(-c2nnc([C@H]3C[C@H](NC(=O)c4cccc5nccnc45)C3)n2-c2ccccc2F)nc1", "note": "[Compound 24, N-(trans-3-(5-(5-Ethoxypyridin-2-yl)-4-(2-fluorophenyl)-4H-1,2,4-triazol-3-yl)cyclobutyl)quinoxaline-5-carboxamide]", "values": [{"measurement": "microsomal CLint at 1 h", "setting": "[1]", "result": 18, "unit": "µL/min/mg"}, {"measurement": "IC50", "setting": "PARP15", "result": "> 10", "unit": "µM"}, {"measurement": "effect of treatment on RKO cell viability", "setting": "RKO cells; APC wild-type control colon cancer line", "result": "only modestly affected"}, {"measurement": "GI50", "setting": "RKO cells; Homo sapiens, RKO, 120 h, read-out: RKO cells GI50", "result": "> 10", "unit": "µM"}, {"measurement": "GI50", "setting": "COLO 320DM cells; Homo sapiens, COLO 320DM, 120 h, read-out: COLO 320DM cells GI50, MTS, 5 days", "result": 0.0101, "unit": "µM"}, {"measurement": "COLO 320DM cells GI25", "setting": "COLO 320DM cells; MTS, 5 days", "result": 0.0025, "unit": "µM"}, {"measurement": "GI50", "setting": "COLO 320DM cells; read-out: COLO 320DM cells GI50, MTS, 5 days", "result": 0.01, "unit": "µM"}, {"measurement": "CYP induction (human PXR)", "setting": "human PXR", "result": "nonactivator ^b ^c"}, {"measurement": "Ames test", "setting": "Ames test", "result": "nongenotoxic"}, {"measurement": "AUC(0-inf) at 24 h", "setting": "[2]; IRC, in vivo", "result": 5040, "unit": "ng·h/mL"}, {"measurement": "AUC(0-t)", "setting": "[2]; IRC, in vivo", "result": 4940, "unit": "ng·h/mL"}, {"measurement": "Cmax at 24 h", "setting": "[2]; IRC, in vivo", "result": 1970, "unit": "ng/mL"}, {"measurement": "Tmax at 24 h", "setting": "[2]; IRC, in vivo", "result": 0.5, "unit": "h"}, {"measurement": "half-life at 24 h", "setting": "[2]; IRC, in vivo", "result": 1.5, "unit": "h"}, {"measurement": "MRT inf at 24 h", "setting": "[2]; IRC, in vivo, read-out: MRT 0 → ∞", "result": 2.39, "unit": "h"}, {"measurement": "CL", "setting": "[2]", "result": 16.5, "unit": "mL/min/kg"}, {"measurement": "Vd", "setting": "[2]", "result": 2.15, "unit": "L/kg"}, {"measurement": "peak value (Cmax) relative to that of 1", "setting": "[2]", "result": "about 60%"}, {"measurement": "IC50", "setting": "PARP3", "result": "> 100", "unit": "µM"}, {"measurement": "IC50", "setting": "CYP3A4", "result": "> 25", "unit": "µM"}]}]}
